The source of these data is PMC5783947 (2018).

In experiment [1] the test system is ATP RNA aptamer (RNA, aptamer) CUUGGGUUGGGAAGAAACUGUGGCACUUCGGUGCCAGCAACCCCAU
The experiment in a line: ACE-Scan microarray, ligand-induced duplex dissociation. The settings on record: 300 mM NaCl, 5 mM MgCl2; 20 mM Tris, pH 7.6, room temperature; 10 mM ATP; array-bound ACEs displaced.

For experiment [2], the system named is ATP DNA aptamer (with 5' extension) (DNA, aptamer) TCACTGACCTGGGGGAGTATTGCGGAGGAAGGT
As to the kind of experiment: solution FRET dose-response, quencher strand displacement. The conditions noted are these: 300 mM NaCl, 5 mM MgCl2; 20 mM Tris, pH 8.3, 0.1% Tween-20, 22.5 °C; BHQ-2 ACEs 5'Q-2T:9, 5'Q4T:10, 5'Q4T:12:6G, 5'Q1A:15, 5'Q-5C:9 displaced.

The test system of experiment [3] is add riboswitch aptamer (RNA, riboswitch) CAACGCUUCAUAUAAUCCUAAUGAUAUGGUUUGGGAGUUUCUACCAAGAGCCUUAAACUCUUGAUUAUGAAGUCUGUCGCUUUAUCC
The experiment in a line: ACE-Scan microarray, ligand-induced duplex dissociation. The settings on record: 130 mM KCl, 12 mM MgCl2; 50 mM Tris, pH 7.5, 23 °C; 4 mM adenine; array-bound ACEs displaced; weaker at lower Mg2+ or 10 °C.

Structures are written as SMILES.

For `Nc1ncnc2c1ncn2[C@@H]1O[C@H](COP(=O)(O)OP(=O)(O)OP(=O)(O)O)[C@@H](O)[C@H]1O`, the binding result in experiment [1] and in experiment [2] was “yes” in each case.
As to `Nc1ncnc2[nH]cnc12`, the binding entry in experiment [3] was “yes”.
